Values quoted from earlier work in patent US7837990B2, “In vivo expanded NKT cells and methods of use thereof” (The Rockefeller University, priority 2005, dated 2010).

Columns and labels:
tumor = settings: mouse models
NKT cells = settings: patients with advanced cancer or healthy volunteers

## CCCCCCCCCCCCCCCCCCCCCCCCCC(=O)N[C@@H](CO[C@H]1O[C@H](CO)[C@H](O)[C@H](O)[C@H]1O)[C@H](O)[C@H](O)CCCCCCCCCCCCCC [KRN-7000, α-galactosyl ceramide]
tumor
  anti-tumor effect: tumor regression in several mouse models
NKT cells
  NKT activation in vivo: transient NKT activation in some individuals
